Each structure is given as a SMILES string.

The record followed here is patent US20080113956A1, “Substituted Porphyrins” (priority 1997, published 2008).

The experiment relates to isolated, perfused mouse liver. Put plainly: Isolated, perfused mouse liver, global ischemia/reperfusion injury. The following applies: 10 μm in perfusate. The procedure:
The ability of Mn TE-2-PyP to attenuate injury associated with 60 minutes of global ischemia followed by 90 minutes of reperfusion was assessed in an isolated, perfused mouse liver model. Excised livers were perfused with a buffered salt solution for 15 minutes after which the metalloporphyrin was introduced into the perfusate and the liver perfused in a recirculating system for an additional 15 minutes. The livers were then rendered globally ischemic under normal thermic conditions for 60 minutes. Following the ischemic period the livers were perfused for 90 minutes with perfusate supplemented with 10 μm Mn TE-2-PyP. In this model the ischemia/reperfused livers have a marked release of hepatocellular enzymes, aspartate transaminase, alanine transaminase, and lactate dehydrogenase during the first 2½ minutes of reperfusion. This is followed by a progressive release of hepatocellular enzymes indicating hepatocellular injury over the 90 minute perfusion period. […] At the end of the experiments liver […]. […] They remain firm and with a normal texture to gross morphologic examination.

Regarding `CC[n+]1ccccc1-c1c2nc(c(-c3cccc[n+]3CC)c3ccc([n-]3)c(-c3cccc[n+]3CC)c3nc(c(-c4cccc[n+]4CC)c4ccc1[n-]4)C=C3)C=C2.[Mn+3]` [MnTE-2-PyP^5+, manganic meso-tetrakis-(N-ethylpyridinium-2-yl)porphyrin], under “60 minutes global ischemia, 90 minutes reperfusion”, the “attenuation of liver injury” value is reported as “highly efficacious in attenuating the liver injury”. Moreover, where the note is “first 2½ minutes of reperfusion”, the “acute hepatocellular enzyme release” value is on record as “blocking virtually all”. In addition, the “progressive hepatocellular enzyme release” value (over the 90 minute perfusion period) was “blocking progressive hepatocellular enzyme release”.
